Data: publication PMC8621770, “New Compounds with Bioisosteric Replacement of Classic Choline Kinase Inhibitors Show Potent Antiplasmodial Activity” (Pharmaceutics, 2021)
Like-named read-outs stand apart in the source and are kept apart here.

Assays:
[1] = tested on: P. falciparum strain 3D7; assay: Antimalarial activity, P. falciparum lactate dehydrogenase growth inhibition assay; assay type: cell-based, Plasmodium falciparum; conditions: Plasmodium falciparum
Procedure: Parasites of the P. falciparum strain 3D7 were grown in fresh group 0 positive human erythrocytes, obtained from the Centro Regional de Transfusion Sanguínea-SAS (Granada, Spain) and suspended at 5% haematocrit in RPMI 1640 containing 2% human serum, 0.2% NaHCO3, 0.5% Albumax II, 150 μM hypoxanthine, and […] gentamicin. Flasks were incubated at 37 °C, under 5% CO2 and 95% air mixture. […] The stock culture was then diluted with complete medium and non-parasitized erythrocytes to yield a haematocrit of 2% and parasitemia of 0.25%. Stock solutions of the test drugs were prepared at an initial concentration of 200 mM in DMSO, serially diluted and dispensed into triplicate in 96-well plates to yield final concentrations ranging from 0.0039 to 2 μM. The final well volume was 200 μL with a final concentration of DMSO 0.001%. Each plate also included positive growth controls, where only medium were added, and negative growth controls with 100 nM of chloroquine. […] A multidrop dispenser was used to add 50 μL of synchronized parasite culture per well. After 72 h of growth in presence of test compounds, the plates were stored frozen at −20 °C for at least 24 h. Next, they were thawed at room temperature. Parasite growth inhibition assays and IC50 determinations were carried out following the P. falciparum lactate dehydrogenase assay where parasite viability is quantified by measuring LDH activity upon APAD+ addition, a cofactor that is specific to the Plasmodium enzyme. To evaluate LDH activity, 140 μL of freshly made reaction mix, containing 143 mM sodium L-lactate, 143 μM APAD, 178.75 μM NBT, 1 U/mL diaphorase, 0.7% Tween 20 and 100 mM Tris-HCl (pH 8.0) were dispensed into plates. After 10 min of incubation in the dark at room temperature, absorbance was measured at 630 nm with a vmax precision multiwell plate reader from Molecular Devices, by using the accompanying SOFT maxPro software for analysis.

[2] = target: T1, PfCK (Plasmodium falciparum, UniProt Q8IM71); assay: Spectrophotometric coupled enzymatic assay for PfCK activity (substrate choline); assay type: biochemical; conditions: for remaining activity at 25 µM: read-out: PfCK Fractional Activity at 25 µM; for IC50: IC50 PfCK b (compound concentration required to inhibit PfCK enzyme by 50%), substrate choline 4 mM, ATP 2 mM
T1 construct: A truncated form of PfCK (Δ79-440) featuring an N-terminal 6× His-tag; 6xHis (N); host or cells: Escherichia coli BL21 (DE3) Star
Procedure: A truncated form of PfCK (Δ79-440) featuring an N-terminal 6× His-tag was purchased from Genescript (Piscataway, NJ, USA), cloned into a pET-28a vector and transformed into Escherichia coli BL21 (DE3) Star cells (Invitrogen, Carlsbad, CA, USA). The transformed bacteria were cultured in Luria-Bertani (LB) medium at 37 °C until OD600 = 0.6 and the expression was induced with 1 mM isopropyl β-D-1-thiogalactopyranoside (IPTG). The cell culture was grown overnight at 20 °C and 180 rpm. Cells were pelleted by centrifugation at 10,000 rpm, resuspended in 50 mM Tris/HCl pH 7.5, 500 mM NaCl, 0.2 mM phenylmethylsulphonyl fluoride (PMSF, Sigma Aldrich, St. Luis, MO, USA), DNase (Sigma Aldrich, St. Luis, MO, USA), 0.5 mM β-mercaptoethanol (Sigma Aldrich, St. Luis, MO, USA) and sonicated. Separation of the soluble from the insoluble fraction was obtained by centrifugation at 15,000 rpm and 4 °C. The target enzyme was purified by a two-step purification protocol. In the first step, the cell lysate was incubated for 45 min with Ni-NTA resin (Qiagen, Venlo, The Netherlands) in a gravity column. Then, the column was washed with 40 column volumes (CV) of 50 mM Tris/HCl pH 7.5, 300 mM NaCl, 10 mM imidazole and 1 CV of 50 mM Tris/HCl pH 7.5, 300 mM NaCl, 40 mM imidazole. Finally, the His-tagged enzyme was eluted from the column using a 50 mM Tris/HCl pH 7.5, 300 mM NaCl, 400 mM imidazole buffer. A subsequent size-exclusion chromatography step was implemented to further polish the sample using a HiPrep 26/60 Sephacryl 100 HR column (GE Healthcare, Little Chalfont, Buckinghamshire, UK) previously equilibrated with 20 mM Tris/HCl pH 7.5, 150 mM NaCl buffer. This second purification step afforded a pure protein sample. The protein production yield was estimated to be nearly 2.5 mg of recombinant enzyme per liter of bacterial culture.
A spectrophotometric 96-well plate assay for PfCK activity was established based on an assay previously described. The reaction mix was composed as follows: 100 mM Tris/HCl pH 7.5, 100 mM KCl, 10 mM MgCl2, 0.5 mM phosphoenolpyruvate, 0.25 mM NADH, 4 U of pyruvate kinase, 5 U lactate dehydrogenase, 2 mM ATP, 4 mM choline chloride and different concentrations of the selected compounds. All the necessary compounds for the assay were purchased from Sigma Aldrich (St. Luis, MO, USA) and the final assay volume was 200 μL. The enzymatic reaction was initiated by the addition of the enzyme at less than 10 nM concentration and the reaction rates were measured by monitoring the decrease in the absorbance at 340 nm for 20 min at room temperature using a Spark10M instrument (Tecan). Finally, the IC50 values for each compound were determined by plotting the enzyme fractional activity (f.a.) against the logarithm of compound concentration (log[I]). Curve-fitting was performed with a dose-response curve from Origin (OriginLab Corporation, Northampton, MA, USA), using the following equation: f.a.=1/1+10^logIC50−logI
All data points were collected in triplicate and the final dose-response curves were plotted with MATLAB (R2018a (9.4.0.813654), 2018, MathWorks, Natick, MA, USA). See curves in Figure S1 in Supplementary Materials.

[3] = Erythrocyte, P. falciparum 3D7 in human erythrocytes, 72 h, LDH readout, read-out: IC50 a (In vitro IC50 values against P. falciparum)

T1 sequence (Q8IM71 entry or part of it): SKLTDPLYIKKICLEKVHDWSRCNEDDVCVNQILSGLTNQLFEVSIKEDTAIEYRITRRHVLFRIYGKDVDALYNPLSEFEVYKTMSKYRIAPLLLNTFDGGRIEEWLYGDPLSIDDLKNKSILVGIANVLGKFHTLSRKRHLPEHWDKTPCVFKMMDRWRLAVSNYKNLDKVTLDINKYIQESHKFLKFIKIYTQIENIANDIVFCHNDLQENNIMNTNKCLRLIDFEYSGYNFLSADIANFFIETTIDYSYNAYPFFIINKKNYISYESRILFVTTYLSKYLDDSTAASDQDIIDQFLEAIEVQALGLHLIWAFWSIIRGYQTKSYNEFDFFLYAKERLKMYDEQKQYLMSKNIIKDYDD

Row | SMILES | IC50 [1, 3] [nM] | remaining activity at 25 µM [2] [%] | melting point [°C] | IC50 ([1]; 3D7, Erythrocyte, 72 h, read-out: IC50 a (In vitro IC50 values against P. falciparum)) [nM] | IC50 [2] [nM] | IC50 ([1]; 3D7, Erythrocyte, infected erythrocytes, P. falciparum, read-out: antimalarial activity (IC50), as given in the text) [nM]
1 | [Br-].[Br-].c1cc2c(s1)c(N1CCCCCC1)nc[n+]2Cc1ccc(-c2ccc(C[n+]3cnc(N4CCCCCC4)c4sccc43)cn2)nc1 [Fa-26, 1,1’-([2,2’-bipyridine]-5,5’-diylbis(methylene))bis(4-(azepan-1-yl)thieno[3,2-d]pyrimidin-1-ium) bromide] | 209 | 78 ± 8.13 | 310 to 312 |  |  | 
2 | [Br-].[Br-].c1cc2c(s1)c(N1CCCCC1)nc[n+]2Cc1ccc(-c2ccc(C[n+]3cnc(N4CCCCC4)c4sccc43)cn2)nc1 [Fa-27, 1,1’-([2,2’-bipyridine]-5,5’-diylbis(methylene))bis(4-(piperidin-1-yl)thieno[3,2-d]pyrimidin-1-ium) bromide] | 120 | 82.6 ± 4.9 | 307 to 309 |  |  | 
3 | [Br-].[Br-].c1cc2c(s1)c(N1CCCCC1)nc[n+]2Cc1ccc(OCCOc2ccc(C[n+]3cnc(N4CCCCC4)c4sccc43)cc2)cc1 [Fa-28, 1,1′-(((ethane-1,2-diylbis(oxy))bis(4,1-phenylene))bis(methylene))bis(4-(piperidin-1-yl)thieno[3,2-d]pyrimidin-1-ium) bromide] | 47.1 | 84.4 ± 7.53 | 198 to 200 |  |  | 
4 | [Br-].[Br-].c1cc2c(s1)c(N1CCCCCC1)nc[n+]2Cc1ccc(CCCCc2ccc(C[n+]3cnc(N4CCCCCC4)c4sccc43)cc2)cc1 [Fa-29, (1,1’((butane1,4diylbis(4,1phenylene))bis(methylene))bis(4-(azepan-1-yl)thieno[3,2-d]pyrimidin-1-ium)) bromide] |  | 46.7 ± 9.49 | 268 to 270 | 55.6 | 4640 ± 200 | 
5 | [Br-].[Br-].c1cc2c(s1)c(N1CCCCC1)nc[n+]2Cc1ccc(CCCCc2ccc(C[n+]3cnc(N4CCCCC4)c4sccc43)cc2)cc1 [Fa-33, 1,1’-((butane-1,4-diylbis(4,1-phenylene))bis(methylene))bis(4-(piperidin-1-yl)thieno[3,2-d]pyrimidin-1-ium) bromide] | 43.9 | 68.8 ± 6.03 | 276 to 278 |  |  | 
6 | [Br-].[Br-].c1cc2c(s1)c(N1CCCC1)cc[n+]2Cc1ccc(OCCOc2ccc(C[n+]3ccc(N4CCCC4)c4sccc43)cc2)cc1 [Ff-2, 4,4’-(((ethane-1,2-diylbis(oxy))bis(4,1-phenylene))bis(methylene))bis(7-(pyrrolidin-1-yl)thieno[3,2-b]pyridin-4-ium) bromide] | 74 | 81.8 ± 3.93 | 280 to 282 |  |  | 
7 | [Br-].[Br-].c1cc2c(N3CCCC3)nc[n+](Cc3ccc(OCCOc4ccc(C[n+]5cnc(N6CCCC6)c6ccsc65)cc4)cc3)c2s1 [Ff-4, 1,1’-(((ethane-1,2-diylbis(oxy))bis(4,1-phenylene))bis(methylene))bis(4-(pyrrolidin-1-yl)thieno[2,3-d]pyrimidin-1-ium) bromide] | 11.5 | 90.7 ± 4.57 | 193 to 195 |  | 37400 ± 3240 | ~11
8 | [Br-].[Br-].c1cc2c(N3CCCCC3)nc[n+](Cc3ccc(OCCOc4ccc(C[n+]5cnc(N6CCCCC6)c6ccsc65)cc4)cc3)c2s1 [Ff-5, 1,1′-(((ethane-1,2-diylbis(oxy))bis(4,1-phenylene))bis(methylene))bis(4-(piperidin-1-yl)thieno[2,3-d]pyrimidin-1-ium) bromide] | 22.4 | 91.1 ± 4.27 | > 280 |  |  | 
9 | [Br-].[Br-].c1cc2c(N3CCCCCC3)nc[n+](Cc3ccc(CCc4ccc(C[n+]5cnc(N6CCCCCC6)c6ccsc65)cc4)cc3)c2s1 [Fg-19, 1,1’-((ethane-1,2-diylbis(4,1-phenylene))bis(methylene))bis(4-(azepan-1-yl)thieno[2,3-d]pyrimidin-1-ium) bromide] | 71.5 |  | 298 to 300 |  |  | 
